According to ChEMBL document CHEMBL5154919, “New ZW4864 Derivatives as Small-Molecule Inhibitors for the β-Catenin/BCL9 Protein-Protein Interaction” (ACS Med Chem Lett, 2022):

How the values were obtained:
[1] = target: T1, beta-catenin-B-cell lymphoma 9 protein complex (Homo sapiens, UniProt P35222); experiment: Inhibition of full length beta-catenin (1 to 781 residues) (unknown origin) expressed in Escherichia coli BL21 (DE3)-N-terminal biotinylated human BCL9 (350 to 375 residues) protein-protein interaction incubated for 1 hr by Alphascreen assay
T1 sequence (P35222 whole entry): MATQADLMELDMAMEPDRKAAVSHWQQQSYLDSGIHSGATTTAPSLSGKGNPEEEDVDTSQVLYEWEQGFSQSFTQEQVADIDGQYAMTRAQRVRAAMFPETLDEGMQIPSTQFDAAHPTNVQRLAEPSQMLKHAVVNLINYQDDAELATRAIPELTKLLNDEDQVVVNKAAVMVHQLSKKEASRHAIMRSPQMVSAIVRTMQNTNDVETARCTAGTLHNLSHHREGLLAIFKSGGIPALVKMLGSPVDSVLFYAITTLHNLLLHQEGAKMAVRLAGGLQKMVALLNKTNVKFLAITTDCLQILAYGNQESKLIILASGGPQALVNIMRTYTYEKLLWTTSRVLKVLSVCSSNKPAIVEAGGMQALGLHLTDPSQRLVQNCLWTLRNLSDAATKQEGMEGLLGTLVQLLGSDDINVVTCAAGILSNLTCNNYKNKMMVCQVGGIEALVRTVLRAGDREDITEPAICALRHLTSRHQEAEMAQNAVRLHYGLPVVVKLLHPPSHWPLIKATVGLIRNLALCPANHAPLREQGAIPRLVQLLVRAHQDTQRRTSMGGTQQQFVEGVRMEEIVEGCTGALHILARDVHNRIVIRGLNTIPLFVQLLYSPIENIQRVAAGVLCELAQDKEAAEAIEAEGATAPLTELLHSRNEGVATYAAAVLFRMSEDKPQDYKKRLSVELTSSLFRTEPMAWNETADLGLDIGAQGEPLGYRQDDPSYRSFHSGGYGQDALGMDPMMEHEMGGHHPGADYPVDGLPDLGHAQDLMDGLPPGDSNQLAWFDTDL
T1 sequence (O00512 whole entry): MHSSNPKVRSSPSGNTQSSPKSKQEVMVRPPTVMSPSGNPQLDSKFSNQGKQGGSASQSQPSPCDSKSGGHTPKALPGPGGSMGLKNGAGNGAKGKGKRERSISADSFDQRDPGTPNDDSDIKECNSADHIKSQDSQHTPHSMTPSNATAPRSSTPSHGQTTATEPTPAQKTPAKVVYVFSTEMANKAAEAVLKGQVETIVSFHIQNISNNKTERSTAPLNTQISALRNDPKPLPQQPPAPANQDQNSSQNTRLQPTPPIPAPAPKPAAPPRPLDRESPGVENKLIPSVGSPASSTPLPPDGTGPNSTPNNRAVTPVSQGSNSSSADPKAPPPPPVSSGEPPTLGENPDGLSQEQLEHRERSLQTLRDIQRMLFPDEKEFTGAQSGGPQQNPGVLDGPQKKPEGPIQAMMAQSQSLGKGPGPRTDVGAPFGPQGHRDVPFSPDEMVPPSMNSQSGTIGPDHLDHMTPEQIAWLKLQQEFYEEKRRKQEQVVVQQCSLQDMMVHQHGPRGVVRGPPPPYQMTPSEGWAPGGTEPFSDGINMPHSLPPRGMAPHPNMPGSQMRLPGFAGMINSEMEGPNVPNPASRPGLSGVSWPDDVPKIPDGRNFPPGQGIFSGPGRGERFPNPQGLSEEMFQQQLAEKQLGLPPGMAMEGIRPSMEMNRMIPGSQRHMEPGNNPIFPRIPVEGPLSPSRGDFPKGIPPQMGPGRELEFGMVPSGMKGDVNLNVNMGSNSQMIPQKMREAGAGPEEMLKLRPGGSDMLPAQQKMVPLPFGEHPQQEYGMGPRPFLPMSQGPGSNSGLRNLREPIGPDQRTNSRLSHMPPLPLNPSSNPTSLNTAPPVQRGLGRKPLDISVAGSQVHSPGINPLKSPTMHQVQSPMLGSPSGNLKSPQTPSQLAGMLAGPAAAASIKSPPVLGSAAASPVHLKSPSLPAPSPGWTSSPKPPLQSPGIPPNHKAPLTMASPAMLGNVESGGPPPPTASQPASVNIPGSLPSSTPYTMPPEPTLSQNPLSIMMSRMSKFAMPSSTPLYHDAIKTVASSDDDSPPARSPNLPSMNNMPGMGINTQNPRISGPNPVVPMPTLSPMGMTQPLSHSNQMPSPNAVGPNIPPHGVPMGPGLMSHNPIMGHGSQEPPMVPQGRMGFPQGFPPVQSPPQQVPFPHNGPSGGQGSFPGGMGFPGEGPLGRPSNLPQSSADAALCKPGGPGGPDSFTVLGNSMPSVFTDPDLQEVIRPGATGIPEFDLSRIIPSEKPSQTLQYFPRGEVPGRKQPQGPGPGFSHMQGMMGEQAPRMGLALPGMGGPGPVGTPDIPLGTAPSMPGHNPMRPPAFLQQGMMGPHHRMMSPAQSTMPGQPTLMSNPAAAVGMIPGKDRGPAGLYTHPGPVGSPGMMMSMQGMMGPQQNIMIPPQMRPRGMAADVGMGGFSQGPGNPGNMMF

[2] = Inhibition of Wnt/beta-catenin transactivation signalling in human SW480 cells by TOPFlash reporter gene assay; assay type: cell-based
MDA-MB-468 = experiment: Antiproliferative activity against human MDA-MB-468 cells assessed as inhibition of cell growth measured by MTS method; assay type: functional, cell-based
SW480 = experiment: Antiproliferative activity against human SW480 cells assessed as inhibition of cell growth measured by MTS method; assay type: functional, cell-based
HCT-116 = experiment: Antiproliferative activity against human HCT-116 cells assessed as inhibition of cell growth measured by MTS method; assay type: functional, cell-based
MDA-MB-231 = experiment: Antiproliferative activity against human MDA-MB-231 cells assessed as inhibition of cell growth measured by MTS method; assay type: functional, cell-based
MCF-10A = experiment: Antiproliferative activity against human MCF-10A cells assessed as inhibition of cell growth measured by MTS method; assay type: functional, cell-based
CYP1A2 = target: T2, CYP1A2 (Homo sapiens, UniProt P05177); experiment: Inhibition of CYP1A2 in human liver microsomes using phenacetin at 10 uM in presence of NADPH incubated for 10 mins; assay type: ADME, Microsome; settings: probe phenacetin
T2 sequence (P05177 whole entry): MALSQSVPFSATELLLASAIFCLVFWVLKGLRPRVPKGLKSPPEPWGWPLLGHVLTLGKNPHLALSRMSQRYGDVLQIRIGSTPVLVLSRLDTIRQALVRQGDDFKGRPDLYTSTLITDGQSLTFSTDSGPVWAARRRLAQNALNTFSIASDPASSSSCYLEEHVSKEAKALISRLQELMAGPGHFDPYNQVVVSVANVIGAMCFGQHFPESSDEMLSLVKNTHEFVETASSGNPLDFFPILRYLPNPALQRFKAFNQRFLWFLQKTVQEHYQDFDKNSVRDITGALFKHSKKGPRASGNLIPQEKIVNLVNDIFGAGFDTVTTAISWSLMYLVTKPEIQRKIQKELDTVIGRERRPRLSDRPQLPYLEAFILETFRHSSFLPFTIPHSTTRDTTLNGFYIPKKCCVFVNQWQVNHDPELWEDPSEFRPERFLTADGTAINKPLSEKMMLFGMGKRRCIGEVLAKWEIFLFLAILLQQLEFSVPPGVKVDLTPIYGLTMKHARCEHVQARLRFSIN

CYP2C9 = CYP2C9 (Homo sapiens, UniProt P11712); experiment: Inhibition of CYP2C9 in human liver microsomes using tolbutamide as substrate at 10 uM in presence of NADPH incubated for 10 mins; assay type: ADME, Microsome; settings: probe tolbutamide
CYP2D6 = CYP2D6 (Homo sapiens, UniProt P10635); experiment: Inhibition of CYP2D6 in human liver microsomes using bufuralol as substrate at 10 uM in presence of NADPH incubated for 10 mins; assay type: ADME, Microsome; settings: probe bufuralol
CYP3A4 = CYP3A4 (Homo sapiens, UniProt P08684); experiment: Inhibition of CYP3A4 in human liver microsomes using Midazolam as substrate at 10 uM in presence of NADPH incubated for 10 mins; assay type: ADME, Microsome; settings: probe midazolam
Sequence of CYP3A4 (P08684 whole entry): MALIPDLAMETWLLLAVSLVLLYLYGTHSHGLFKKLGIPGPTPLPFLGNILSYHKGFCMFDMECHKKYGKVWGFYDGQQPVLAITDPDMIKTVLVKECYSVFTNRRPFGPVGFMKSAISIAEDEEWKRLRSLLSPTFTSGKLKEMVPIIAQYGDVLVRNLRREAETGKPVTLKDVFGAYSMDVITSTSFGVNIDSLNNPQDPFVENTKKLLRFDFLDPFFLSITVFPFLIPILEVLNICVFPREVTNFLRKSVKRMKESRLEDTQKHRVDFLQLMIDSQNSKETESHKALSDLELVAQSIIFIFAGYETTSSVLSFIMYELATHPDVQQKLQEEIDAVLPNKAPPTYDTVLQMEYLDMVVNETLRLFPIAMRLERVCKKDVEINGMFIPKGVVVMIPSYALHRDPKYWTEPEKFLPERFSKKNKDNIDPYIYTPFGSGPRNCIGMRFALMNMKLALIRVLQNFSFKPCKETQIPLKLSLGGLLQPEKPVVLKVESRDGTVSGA

Sequence of CYP2C9 (P11712 whole entry): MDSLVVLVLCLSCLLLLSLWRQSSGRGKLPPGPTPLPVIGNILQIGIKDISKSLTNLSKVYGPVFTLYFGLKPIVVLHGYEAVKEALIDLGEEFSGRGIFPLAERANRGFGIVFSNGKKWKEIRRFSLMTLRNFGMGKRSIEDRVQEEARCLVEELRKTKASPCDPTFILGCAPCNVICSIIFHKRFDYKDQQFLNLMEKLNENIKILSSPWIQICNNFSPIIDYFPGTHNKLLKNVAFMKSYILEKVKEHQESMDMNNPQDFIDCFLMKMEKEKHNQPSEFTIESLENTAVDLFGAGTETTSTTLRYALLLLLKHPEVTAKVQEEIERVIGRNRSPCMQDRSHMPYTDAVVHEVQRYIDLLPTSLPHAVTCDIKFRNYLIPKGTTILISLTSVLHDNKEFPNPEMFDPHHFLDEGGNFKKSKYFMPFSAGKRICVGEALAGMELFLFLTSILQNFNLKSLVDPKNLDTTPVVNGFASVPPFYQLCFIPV
Sequence of CYP2D6 (P10635 whole entry): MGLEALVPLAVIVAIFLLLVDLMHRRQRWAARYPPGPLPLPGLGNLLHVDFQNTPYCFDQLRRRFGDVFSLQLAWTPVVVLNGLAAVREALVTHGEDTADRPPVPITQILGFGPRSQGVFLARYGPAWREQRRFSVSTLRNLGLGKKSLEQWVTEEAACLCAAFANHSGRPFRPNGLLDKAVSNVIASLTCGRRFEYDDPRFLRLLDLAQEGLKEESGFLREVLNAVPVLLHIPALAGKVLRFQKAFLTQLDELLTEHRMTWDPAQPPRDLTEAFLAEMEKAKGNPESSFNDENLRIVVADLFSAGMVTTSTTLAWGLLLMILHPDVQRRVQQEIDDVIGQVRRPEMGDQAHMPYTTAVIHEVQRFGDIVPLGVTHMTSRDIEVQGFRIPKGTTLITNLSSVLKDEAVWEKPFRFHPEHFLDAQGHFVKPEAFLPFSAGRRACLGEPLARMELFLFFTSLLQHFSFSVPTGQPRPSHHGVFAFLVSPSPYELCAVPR

Compound	IC50 [1]	Ki [1]	further results
CC(C)(Oc1cccc(N2CCC[C@@H](C(=O)NCc3ccc(-c4cn[nH]c4)cc3)C2)c1)C(=O)N1CCNCC1	81 µM	73 µM	–
CC(C)(Oc1cccc(N2CCC[C@@H](C(=O)N(Cc3ccc(-c4cn[nH]c4)cc3)C3CCCC3)C2)c1)C(=O)N1CCNCC1	7.6 µM	6.8 µM	–
CC(C)(Oc1cccc(N2CCC[C@@H](C(=O)N(Cc3ccc(-c4c[nH]c5ncccc45)cc3)C3CC3)C2)c1)C(=O)N1CCNCC1	0.96 µM	0.85 µM	IC50 [2]: 11 µM; IC50 (MDA-MB-468): 5 µM; IC50 (SW480): 9.7 µM; IC50 (HCT-116): 8.1 µM; IC50 (MDA-MB-231): 4.6 µM; IC50 (MCF-10A): 24 µM
CC(C)(Oc1cccc(N2CCC[C@@H](C(=O)N(Cc3ccc(-c4cn[nH]c4)cc3)C3CC3)C2)c1)C(=O)N1CC2(CNC2)C1	44 µM	37 µM	–
CC(C)(Oc1cccc(N2CCC[C@@H](C(=O)N(Cc3ccc(-c4cn[nH]c4)cc3)CC3CC3)C2)c1)C(=O)N1CCNCC1	18 µM	15 µM	–
CC(C)(Oc1cccc(N2CCC[C@@H](C(=O)N(Cc3ccc(-c4c[nH]c5ccccc45)cc3)C3CC3)C2)c1)C(=O)N1CCNCC1	1.4 µM	1.2 µM	–
CC(C)(Oc1cccc(N2CCC[C@@H](C(=O)N(Cc3ccc(-c4ccnc5[nH]ccc45)cc3)C3CC3)C2)c1)C(=O)N1CCNCC1	2.2 µM	1.8 µM	IC50 [2]: 15 µM; IC50 (MDA-MB-468): 5.5 µM; IC50 (SW480): 10 µM; IC50 (HCT-116): 7.7 µM; IC50 (MDA-MB-231): 6.5 µM; IC50 (MCF-10A): 29 µM
O=C([C@@H]1CCCN(c2cccc(OC3(C(=O)N4CCNCC4)CC3)c2)C1)N(Cc1ccc(-c2cn[nH]c2)cc1)C1CC1	29 µM	24 µM	–
CC(C)N(Cc1ccc(-c2cn[nH]c2)cc1)C(=O)[C@@H]1CCCN(c2cccc(OC(C)(C)C(=O)N3CCNCC3)c2)C1	8.9 µM	8 µM	–
CC(C)(Oc1cccc(N2CCC[C@@H](C(=O)N(Cc3ccc(-c4cn[nH]c4)cc3)C3CC3)C2)c1)C(=O)N1CCC2(CCNC2)C1 (some centres not stated)	12 µM	9.8 µM	–
O=C([C@@H]1CCCN(c2cccc(OC3(C(=O)N4CCNCC4)CCCC3)c2)C1)N(Cc1ccc(-c2cn[nH]c2)cc1)C1CC1	43 µM	39 µM	–
CN(Cc1ccc(-c2cn[nH]c2)cc1)C(=O)[C@@H]1CCCN(c2cccc(OC(C)(C)C(=O)N3CCNCC3)c2)C1	28 µM	25 µM	–
CC(C)(Oc1cccc(N2CCC[C@@H](C(=O)N(Cc3ccc(-c4cn[nH]c4)cc3)C3CCC3)C2)c1)C(=O)N1CCNCC1	12 µM	11 µM	–
CC(C)(Oc1cccc(N2CCC[C@@H](C(=O)N(Cc3ccc(-c4cn[nH]c4)cc3)C3CC3)C2)c1)C(=O)N1C[C@H]2CNC[C@H]2C1	8.3 µM	6.8 µM	–
CC(C)(Oc1cccc(N2CCC[C@@H](C(=O)N(Cc3ccc(-c4cccc5[nH]ncc45)cc3)C3CC3)C2)c1)C(=O)N1CCNCC1	2.5 µM	2 µM	–
O=C(C(Oc1cccc(N2CCC[C@@H](C(=O)N(Cc3ccc(-c4cn[nH]c4)cc3)C3CC3)C2)c1)c1ccccc1)N1CCNCC1 (some centres not stated)	23 µM	21 µM	–
CC(C)(Oc1cccc(N2CCC[C@@H](C(=O)N(Cc3ccc(-c4cn[nH]c4)cc3)C3CC3)C2)c1)C(=O)N1CCC2(CNC2)C1	20 µM	16 µM	–
CC(C)(Oc1cccc(N2CCC[C@@H](C(=O)N(Cc3ccc(-c4cn[nH]c4)cc3)C3CC3)C2)c1)C(=O)N1CC2(CCNCC2)C1	38 µM	31 µM	–
CC(C)(Oc1cccc(N2CCC[C@@H](C(=O)N(Cc3ccc(-c4cn[nH]c4)cc3)C3CC3)C2)c1)C(=O)N1CCNCC1	–	–	inhibition at 10 min, 10 µM (CYP1A2): 17%; inhibition at 10 min, 10 µM (CYP2C9): 83%; inhibition at 10 min, 10 µM (CYP2D6): 73%; inhibition at 10 min, 10 µM (CYP3A4): 96%
